Test results from patent US20110152229A1, “BETULINIC ACID DERIVATIVES AS ANTI-HIV AGENTS” (Duke University, priority 2006, published 2011).
pEC50, pIC50: −log10 of the molar value. Where two headings read alike, the source gives them in different places.

What was measured:
HIV-1 NL4-3 = assay: Anti-HIV assay: HIV-1 NL4-3 replication in MT4 cells (p24 ELISA); type: cell-based
Excerpt: Anti-HIV assay: A previously known HIV-1 infectivity assay was used in the experiments (See Zhu, et al. Proc. Natl. Acad. Sci. U.S.A. 2001, 98, 15227). A 96-well microtiter plate was used to set up the HIV-1 NL4-3 replication assay. HIV-1 NL4-3 at a multiplicity of infection (MOI) of 0.01 was used to infect MT4 cells. Culture supernatants were collected on day 4 post infection for p24 assay using an ELISA kit from ZeptoMetrix Corporation (Buffalo, N.Y.). Cell fusion assay: TZM cells that express luciferase upon fusion with envelope-expressing COS cells were used as fusion partners. The fusion assays were performed by transfecting monkey kidney cells (COS) with the expression vector pSRHS that contains the HIV-1 NL4-3 envelope genes. Electroporation was performed to express the HIV-1 envelope on COS cells. Briefly, COS cells (10^6) in culture medium were incubated with 2 μg of the envelope expression vector on ice for 10 min. Electroporation was performed using a gene pulser (BioRad, Hercules, Calif.) with capacitance set at 950 μF and voltage at 150 V. The transfected COS cells were cultured for one day before mixing with TZM cells. TZM cells (10×10^4) were incubated with COS cells (10^4) in 96-well flat-bottomed plates (Costar) in 100 μl culture medium. Compounds to be tested at various concentrations in 10 μl of culture medium were incubated with the cell mixtures at 37° C. for 24 hours. A Promega luciferase assay kit was used to quantify luciferase activity in the fused cells using a Biotek luminometer. The drug concentration that reduced the control HIV-1 envelope-mediated fusion by 50% is defined as 50% effective concentration (EC50). HIV-1 maturation assay: MT4 cells (10^5 cells/mL) were infected with HIV-1 NL4-3 at a multiplicity of infection (MOI) of 0.01 infectious units/cells for three days. The culture medium was removed and the infected cells were resuspended at 5×10^5 cells/mL and treated with BA derivatives at various concentrations. The virions in the culture supernatant were collected one day after drug treatment. The viral particles were spun down and subjected to Western Blot analysis of p24 and p25 as previously described. (See Zhou, et al. J. Virol. 2004, 78, 922 and Zhou, et al., Retrovirology 2004, 1, 15.)
Table 1 illustrated the effect of compound 11, 16-20 and 18b against HIV-NL4-3 in MT4 cells.

MT4 cells = assay: Reduction of viable cells in a 4-day assay (MT4 cells); type: cell-based; conditions: Homo sapiens, read-out: IC50 (drug concentration that resulted in a 50% reduction of viable cells)
HIV-1 NL4-3 envelope = assay: Cell fusion assay (luciferase-based; TZM cells with envelope-expressing COS cells); conditions: FIG. 1; TZM/COS fusion partners, luciferase readout
Excerpt: (§1) Anti-HIV assay: A previously known HIV-1 infectivity assay was used in the experiments (See Zhu, et al. Proc. Natl. Acad. Sci. U.S.A. 2001, 98, 15227). A 96-well microtiter plate was used to set up the HIV-1 NL4-3 replication assay. HIV-1 NL4-3 at a multiplicity of infection (MOI) of 0.01 was used to infect MT4 cells. Culture supernatants were collected on day 4 post infection for p24 assay using an ELISA kit from ZeptoMetrix Corporation (Buffalo, N.Y.). Cell fusion assay: TZM cells that express luciferase upon fusion with envelope-expressing COS cells were used as fusion partners. The fusion assays were performed by transfecting monkey kidney cells (COS) with the expression vector pSRHS that contains the HIV-1 NL4-3 envelope genes. Electroporation was performed to express the HIV-1 envelope on COS cells. Briefly, COS cells (10^6) in culture medium were incubated with 2 μg of the envelope expression vector on ice for 10 min. Electroporation was performed using a gene pulser (BioRad, Hercules, Calif.) with capacitance set at 950 μF and voltage at 150 V. The transfected COS cells were cultured for one day before mixing with TZM cells. TZM cells (10×10^4) were incubated with COS cells (10^4) in 96-well flat-bottomed plates (Costar) in 100 μl culture medium. […] A Promega luciferase assay kit was used to quantify luciferase activity in the fused cells using a Biotek luminometer. […]

HIV-1 p25 processing = assay: HIV-1 maturation assay (Western blot of p24 and p25); type: cell-based; conditions: FIG. 2; p25 detected by Western blot
Excerpt: as §1

[1] = Human immunodeficiency virus 1, NL43, HIV-NL4-3 in MT4 cells, average of at least two experiments, read-out: EC50 (concentration that inhibits HIV-1 replication by 50%)
[2] = 96 h, cytotoxicity, 4-day assay, MT4 cells, average of at least two experiments
[3] = Human immunodeficiency virus 1, NL43, MT4, read-out: EC50 (concentration that inhibits HIV-1 replication by 50%)

Row | Compound | pEC50 (HIV-1 NL4-3; [1]) | pIC50 (MT4 cells; [2]) | melting point | inhibition of NL4-3 replication (HIV-1 NL4-3; negative control, concentration not given) | anti-fusion activity: HIV-1 envelope mediated membrane fusion (HIV-1 NL4-3 envelope) | pEC50 (HIV-1 NL4-3; [3]) | pIC50 (MT4 cells; MT4, 96 h) | anti-maturation activity: HIV-1 p25 processing (HIV-1 p25 processing)
1 | C=C(C)[C@@H]1CC[C@]2(C(=O)NCCCCCCCCNC(C)=O)CC[C@]3(C)[C@H](CC[C@@H]4[C@@]5(C)CC[C@H](OC(=O)CC(C)(C)C(=O)O)C(C)(C)[C@@H]5CC[C@]43C)[C@@H]12 [Compound 19, [[N-[3β-O-(3′,3′-Dimethylsuccinyl)-lup-20(29)-en-28-oyl]-8-aminooctyl]-carbamoyl]methane] | 8.44 | 5.15 | 113 to 115 °C |  |  |  |  | 
2 | C=C(C)[C@@H]1CC[C@]2(C(=O)NCCCCCNC(C)=O)CC[C@]3(C)[C@H](CC[C@@H]4[C@@]5(C)CC[C@H](OC(=O)CC(C)(C)C(=O)O)C(C)(C)[C@@H]5CC[C@]43C)[C@@H]12 [Compound 16, [[N-[3β-O-(3′,3′-dimethylsuccinyl)-lup-20(29)-en-28-oyl]-5-aminopentyl]-carbamoyl]methane] | 7.92 | 5.05 | 137 °C (dec.) |  |  |  |  | 
3 | C=C(C)[C@@H]1CC[C@]2(C(=O)NCCCCCCCCCNC(C)=O)CC[C@]3(C)[C@H](CC[C@@H]4[C@@]5(C)CC[C@H](OC(=O)CC(C)(C)C(=O)O)C(C)(C)[C@@H]5CC[C@]43C)[C@@H]12 [Compound 20, [[N-[3β-O-(3′,3′-Dimethylsuccinyl)-lup-20(29)-en-28-oyl]-9-aminonoyl]-carbamoyl]methane] | 7.92 | 5.13 | 120 to 122 °C |  |  |  |  | 
4 | C=C(C)[C@@H]1CC[C@]2(C(=O)On3nnc4ccccc43)CC[C@]3(C)[C@H](CC[C@@H]4[C@@]5(C)CC[C@H](OC(=O)C(C)(C)CC(=O)O)C(C)(C)[C@@H]5CC[C@]43C)[C@@H]12 [Compound 11, O-[3β-O-(2′,2′-Dimethylsuccinyl)-lup-20(29)-en-28-oyl]-1-hydroxybenzotriazole] | 7.46 | 5.60 | 151 to 154 °C |  |  |  |  | 
5 | C=C(C)[C@@H]1CC[C@]2(C(=O)NCCCCCCNC(C)=O)CC[C@]3(C)[C@H](CC[C@@H]4[C@@]5(C)CC[C@H](OC(=O)CC(C)(C)C(=O)O)C(C)(C)[C@@H]5CC[C@]43C)[C@@H]12 [Compound 17, [[N-[3β-O-(3′,3′-Dimethylsuccinyl)-lup-20(29)-en-28-oyl]-6-aminohexyl]-carbamoyl]methane] | 8.15 | 5.12 | 137 °C (dec.) |  |  |  |  | 
6 | C=C(C)[C@@H]1CC[C@]2(C(=O)O)CC[C@]3(C)[C@H](CC[C@@H]4[C@@]5(C)CC[C@H](O)C(C)(C)[C@@H]5CC[C@]43C)[C@@H]12 [Betulinic acid] |  |  |  | did not inhibit |  |  |  | 
7 | C=C(C)[C@@H]1CC[C@]2(C(=O)NCCCCCCCNC(C)=O)CC[C@]3(C)[C@H](CC[C@@H]4[C@@]5(C)CC[C@H](O)C(C)(C)[C@@H]5CC[C@]43C)[C@@H]12 [Compound 18b, [[N-[3β-Hydroxy-lup-20(29)-en-28-oyl]-7-aminoheptyl]-carbamoyl]methane] |  |  |  |  | inhibits HIV-1 envelope mediated membrane fusion | 7.33 | < 5.00 | 
8 | C=C(C)[C@@H]1CC[C@]2(C(=O)NCCCCCCCNC(C)=O)CC[C@]3(C)[C@H](CC[C@@H]4[C@@]5(C)CC[C@H](OC(=O)CC(C)(C)C(=O)O)C(C)(C)[C@@H]5CC[C@]43C)[C@@H]12 [Compound 18, [[N-[3β-O-(3′,3′-Dimethylsuccinyl)-lup-20(29)-en-28-oyl]-7-aminoheptyl]-carbamoyl]methane] |  |  | 117 to 120 °C |  | inhibits HIV-1 envelope mediated membrane fusion | 8.59 | 5.10 | interfere with HIV-1 p25 processing
